From PubChem BioAssay AID248 (DTP/NCI, 2004)
Toxic doses and inconclusive results are not listed. No stated cut-off is given here; in the data, active means T/C of 150% or more; inactive means T/C below 125%.

Tested on: L1210 leukemia ip in BDF1 mice, survival T/C
Assay: NCI In Vivo Anticancer Drug Screen. Data for tumor model L1210 Leukemia (intraperitoneal) in B6D2F1 (BDF1) mice
Details: endpoint: mean survival time, higher = longer survival
Method in brief: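 Mice bearing the transplanted tumor received compound or vehicle. Survival of the treated group was divided by that of the vehicle-treated control group to give the ratio.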

[1] = dose: 100.0 mg/kg/injection, schedule: Q01DX009 (ip), vehicle: Klucel (hydroxypropylcellulose) (HPC)
[2] = dose: 100.0 mg/kg/injection, schedule: Q04DX003 (ip), vehicle: Klucel (hydroxypropylcellulose) (HPC)
[3] = dose: 200.0 mg/kg/injection, schedule: Q01DX009 (ip), vehicle: Klucel (hydroxypropylcellulose) (HPC)
[4] = dose: 200.0 mg/kg/injection, schedule: Q04DX003 (ip), vehicle: Klucel (hydroxypropylcellulose) (HPC)
[5] = dose: 400.0 mg/kg/injection, schedule: Q01DX009 (ip), vehicle: Klucel (hydroxypropylcellulose) (HPC)
[6] = dose: 25.0 mg/kg/injection, schedule: Q04DX003 (ip), vehicle: Klucel (hydroxypropylcellulose) (HPC)
[7] = dose: 50.0 mg/kg/injection, schedule: Q04DX003 (ip), vehicle: Klucel (hydroxypropylcellulose) (HPC)
[8] = dose: 100.0 mg/kg/injection, schedule: Q04DX003 (ip), vehicle: saline with Tween-80
[9] = dose: 200.0 mg/kg/injection, schedule: Q04DX003 (ip), vehicle: saline with Tween-80
[10] = dose: 400.0 mg/kg/injection, schedule: Q04DX003 (ip), vehicle: saline with Tween-80
[11] = dose: 100.0 mg/kg/injection, schedule: Q01DX001 (ip), vehicle: other
[12] = dose: 100.0 mg/kg/injection, schedule: Q04DX003 (ip), vehicle: saline
[13] = dose: 200.0 mg/kg/injection, schedule: Q04DX003 (ip), vehicle: saline
[14] = dose: 400.0 mg/kg/injection, schedule: Q04DX003 (ip), vehicle: saline
[15] = dose: 50.0 mg/kg/injection, schedule: Q01DX009 (ip), vehicle: saline with Tween-80
[16] = dose: 100.0 mg/kg/injection, schedule: Q01DX009 (ip), vehicle: saline with Tween-80
[17] = dose: 400.0 mg/kg/injection, schedule: Q04DX002 (ip), vehicle: saline with Tween-80
[18] = dose: 100.0 mg/kg/injection, schedule: Q04DX002 (ip), vehicle: Klucel (hydroxypropylcellulose) (HPC)
[19] = dose: 400.0 mg/kg/injection, schedule: Q04DX002 (ip), vehicle: Klucel (hydroxypropylcellulose) (HPC)
[20] = dose: 200.0 mg/kg/injection, schedule: Q04DX002 (ip), vehicle: Klucel (hydroxypropylcellulose) (HPC)
[21] = dose: 200.0 mg/kg/injection, schedule: Q01DX009 (ip), vehicle: saline with Tween-80
[22] = dose: 400.0 mg/kg/injection, schedule: Q01DX009 (ip), vehicle: saline with Tween-80
[23] = dose: 100.0 mg/kg/injection, schedule: Q01DX009 (ip), vehicle: saline
[24] = dose: 200.0 mg/kg/injection, schedule: Q01DX009 (ip), vehicle: saline
[25] = dose: 400.0 mg/kg/injection, schedule: Q01DX009 (ip), vehicle: saline
[26] = dose: 100.0 mg/kg/injection, schedule: Q01DX001 (ip), vehicle: saline
[27] = dose: 200.0 mg/kg/injection, schedule: Q01DX001 (ip), vehicle: saline
[28] = dose: 400.0 mg/kg/injection, schedule: Q01DX001 (ip), vehicle: saline

Measured: T/C

O=[N+]([O-])c1ccc(/C=C/c2ccccc2Br)cc1
inactive: [1] 106 % of control | [2] 100 % of control | [3] 97 % of control | [4] 98 % of control | [5] 97 % of control | dose: 400.0 mg/kg/injection, schedule: Q04DX003 (ip), vehicle: Klucel (hydroxypropylcellulose) (HPC) 98 % of control

Cc1ccc(C(=O)Nc2ccc(OCCCc3c(N)nc(N)nc3N)cc2)cc1S(=O)(=O)F
inactive: [6] 103 % of control | [7] 97 % of control | [2] 103 % of control

Cc1cc2nc(CC(O)(C(F)(F)F)C(F)(F)F)oc2cc1C
inactive: [8] 96 % of control | [9] 102 % of control | [10] 101 % of control

Cn1c(CCl)nc2c1c(=O)[nH]c(=O)n2C
inactive: [11] 95 % of control

CCC(C(=O)O)C(O)(CC(=O)O)C(=O)O (stereo not given)
inactive: [12] 98 % of control | [13] 101 % of control | [14] 95 % of control

NNC(=O)c1ccc([N+](=O)[O-])cc1
inactive: dose: 25.0 mg/kg/injection, schedule: Q01DX009 (ip), vehicle: saline with Tween-80 97 % of control | [15] 92 % of control | [16] 95 % of control | [8] 95 % of control

O=C(O)c1c(F)c(F)c(O)c(F)c1F
inactive: dose: 25.6 mg/kg/injection, schedule: Q04DX002 (ip), vehicle: saline with Tween-80 103 % of control | dose: 64.0 mg/kg/injection, schedule: Q04DX002 (ip), vehicle: saline with Tween-80 110 % of control | dose: 160.0 mg/kg/injection, schedule: Q04DX002 (ip), vehicle: saline with Tween-80 89 % of control | [17] 103 % of control

COCCNP(=O)(OC)OC
inactive: dose: 50.0 mg/kg/injection, schedule: Q01DX009 (ip), vehicle: acetone 100 % of control | dose: 50.0 mg/kg/injection, schedule: Q04DX003 (ip), vehicle: acetone 96 % of control | dose: 100.0 mg/kg/injection, schedule: Q01DX001 (ip), vehicle: acetone 110 % of control | dose: 100.0 mg/kg/injection, schedule: Q01DX009 (ip), vehicle: acetone 108 % of control | dose: 100.0 mg/kg/injection, schedule: Q04DX003 (ip), vehicle: acetone 101 % of control | dose: 200.0 mg/kg/injection, schedule: Q01DX001 (ip), vehicle: acetone 102 % of control | dose: 200.0 mg/kg/injection, schedule: Q01DX009 (ip), vehicle: acetone 97 % of control | dose: 200.0 mg/kg/injection, schedule: Q04DX003 (ip), vehicle: acetone 111 % of control

C/C(=N/OC(=O)N(C)C)c1ccc(Cl)cc1Cl
inactive: [11] 107 % of control

CSc1ccc(NC(=O)C(Cl)Cl)cc1
inactive: [1] 95 % of control | [18] 97 % of control | [3] 105 % of control | [5] 101 % of control | [19] 93 % of control

CCCCCCCCCCCCC1CC(=O)OC1=O (stereo not given)
inactive: [1] 97 % of control | [2] 93 % of control | [3] 95 % of control | [4] 91 % of control

CN(C(=O)c1ccc([N+](=O)[O-])cc1)c1ccccc1
inactive: dose: 50.0 mg/kg/injection, schedule: Q01DX001 (ip), vehicle: carboxymethylcellulose (CMC) 100 % of control | dose: 100.0 mg/kg/injection, schedule: Q01DX001 (ip), vehicle: carboxymethylcellulose (CMC) 118 % of control | [1] 103 % of control | [18] 93 % of control | dose: 200.0 mg/kg/injection, schedule: Q01DX001 (ip), vehicle: carboxymethylcellulose (CMC) 108 % of control | [3] 96 % of control | [20] 90 % of control | dose: 400.0 mg/kg/injection, schedule: Q01DX001 (ip), vehicle: carboxymethylcellulose (CMC) 96 % of control | [5] 100 % of control | [19] 123 % of control

CCC(C)(C)C(=O)O
inactive: [15] 104 % of control | [16] 98 % of control | [21] 98 % of control

COC(=O)CCN1CC1(C)C (stereo not given)
inactive: [6] 96 % of control | [7] 98 % of control | [2] 96 % of control

COC1OC(CCl)C(OS(=O)(=O)c2ccc(C)cc2)C(OS(=O)(=O)c2ccc(C)cc2)C1OS(=O)(=O)c1ccc(C)cc1 (stereo not given)
inactive: [18] 90 % of control | [20] 93 % of control | [19] 97 % of control

O=[N+]([O-])c1cc(S(=O)(=O)F)ccc1S
inactive: [2] 102 % of control | [4] 100 % of control

CCOC(=O)C(=O)c1ccccc1
inactive: [16] 100 % of control | [8] 96 % of control | [21] 103 % of control | [9] 103 % of control | [22] 97 % of control | [10] 103 % of control

CCN(CC)C(=O)Cn1ccc(NC(C)=O)nc1=O
inactive: [23] 104 % of control | [12] 106 % of control | [24] 98 % of control | [13] 113 % of control | [25] 98 % of control | [14] 111 % of control

O=c1ccn2c(n1)OC1C(O)C(CO)OC12 (stereo not given)
inactive: dose: 100.0 mg/kg/injection, schedule: Q01DX005 (ip), vehicle: saline 103 % of control | [23] 97 % of control | dose: 200.0 mg/kg/injection, schedule: Q01DX005 (ip), vehicle: saline 111 % of control | [24] 109 % of control | [25] 101 % of control

O=C(C1CC1c1ccccc1)N1CCC(O)(c2ccccc2)CC1 (stereo not given)
inactive: dose: 100.0 mg/kg/injection, schedule: Q04DX002 (ip), vehicle: saline with Tween-80 103 % of control | dose: 200.0 mg/kg/injection, schedule: Q04DX002 (ip), vehicle: saline with Tween-80 100 % of control | [17] 97 % of control

CN(C)/N=N/c1nc[nH]c1C(=O)NCCc1ccccc1
inactive: [11] 108 % of control | dose: 200.0 mg/kg/injection, schedule: Q01DX001 (ip), vehicle: other 108 % of control

COCC/C(COC)=N\N=C(/CCOC)COC
inactive: dose: 50.0 mg/kg/injection, schedule: Q01DX001 (ip), vehicle: saline 97 % of control | [26] 103 % of control | [1] 103 % of control | [27] 106 % of control | [3] 111 % of control | [28] 109 % of control

N#Cc1ccc(O)c(N)c1
inactive: [26] 95 % of control | [27] 90 % of control | [28] 90 % of control

O=C1OC2CCCCC2c2ccccc21 (stereo not given)
inactive: [16] 98 % of control | [21] 103 % of control | [22] 103 % of control

Cc1cccc(C)c1OC(=O)Nc1ccccc1Cl
inactive: [18] 95 % of control | [20] 106 % of control | [19] 103 % of control
